{
  "source": "patent US8603818B1",
  "about": "“TGF-beta receptor inhibitors to enhance direct reprogramming” (The General Hospital Corporation, priority 2008, dated 2013)",
  "molecules": {"B1": {"name": "TGF-β2: TGF-β ligand obtained from Peprotech (protein, UniProt P61812 303-414, looked up)", "Transforming growth factor …": "ALDAAYCFRNVQDNCCLRPLYIDFKRDLGWKWIHEPKGYNANFCAGACPYLWSSDTQHSRVLSLYNTINPEASASPCCVSQDLEPLTILYYIGKTPKIEQLSNMIVKSCKCS"}},
  "key": {"Sox2-GFP fibroblasts": {"tested_on": "Sox2-GFP fibroblasts", "from_the_text": "1A. Effect of Alk5 inhibitor treatment on the number of Sox2-GFP+iPS colonies\nFibroblasts cultures were established from mice expressing green-fluorescent protein (GFP) from the genomic locus of the pluripotency gene Sox2. Sox2-GFP fibroblasts were then infected with viruses expressing the reprogramming factors c-Myc, Klf4, Oct4 and Sox2 in the presence and absence of a chemical inhibitor highly specific for the TGF-beta receptor Alk5 (ALK5 inhibitor H). GFP+colonies with embryonic stem (ES) cell morphology were scored 20 days after infection."}, "[1]": {"tested_on": "embryonic stem cells+MEFs", "experiment": "Reprogramming by cell fusion", "conditions": "data not shown"}, "[2]": {"tested_on": "MEFs infected with OSK or OSMK", "conditions": "inhibitor 1 μM", "from_the_text": "7A. […] Cells were counted at each timepoint noted, and values represent the fractional change in cell number: (fraction of starting cell number at timepoint b−fraction of starting cell number at timepoint a)/time between b and a.\nIn support of this, it has been shown that activation of TGF-β signaling can promote an epithelial-to-mesenchymal transition (Valcourt, U., et al., (2005) Mol Biol Cell 16, 1987-2002); fibroblast reprogramming involves a mesenchymal-to-epithelial conversion, which may be enhanced by inhibition of the TGF-β signaling pathway."}, "secondary MEF lines": {"tested_on": "secondary MEF lines", "conditions": "inhibitor 2 μM, colonies day 16", "experimental": "Kinetics of reprogramming in two secondary MEF lines. Dox was applied for either 4, 6, 8, or 10 days, with or without the Alk5 inhibitor (2 μM). Colonies were quantified on day 16 based on morphology and dox independence.\nTo this end, we employed a “secondary system” consisting of MEFs isolated from iPSC-derived chimeras.\nIn two different secondary MEF lines, the effect of Alk5 inhibition on both the efficiency and kinetics of reprogramming was tested. In this experiment, dox was applied for 4, 6, 8, or 10 days, either in the presence or absence of the Alk5 inhibitor, then quantified iPSC colony number on day 16."}, "human fibroblast": {"tested_on": "human fibroblast", "conditions": "data not shown"}, "[3]": {"tested_on": "four-factor infected MEFs", "experiment": "iPSC induction in four-factor infected MEFs (dox-inducible lentiviruses)", "format": "cell-based, mice", "conditions": "for efficiency of iPSC formation / iPSC colonies per well: 1 ng/mL ligand during dox induction, dox 12d, counts day 16", "method": "2A. Alkaline phosphatase stain for primary iPSC colonies, treated with or without the Alk5 inhibitor (1 μM) during dox induction. MEFs were infected with four factors and colonies were stained on day 12 (8d+dox/4d−dox).\n2B. Kinetics of reprogramming in MEFs infected with four factors.\n2D. Dose-response curve for the Alk5 inhibitor in MEFs induced with four factors.\n2E Effect of TGF-β ligands in reprogramming, using four-factor infected MEFs (dox for 12d; counts on day 16 based on Oct4 immunostaining). TGF-β concentrations: low, 1 ng/mL; medium, 2.5 ng/mL; high, 5 ng/mL.\n2F. Timing of Alk5 inhibitor action. The Alk5 inhibitor (1 μM) was applied in 4-day time intervals. Control=no inhibitor, Full-time=inhibitor added days 1-16.\n2G. […] Inhibitor (1 μM) was applied for either 3 days before (−3 to 0d) or during the first 3 days of dox induction (0 to +3d), or both (−3d to +3d). Control=no inhibitor.\nTo induce reprogramming, MEFs were infected with a reverse tetracycline transactivator (rtTA) transgene with doxycycline-inducible lentiviruses encoding the four reprogramming factors as previously described (Stadtfeld, M., et al., (2008) Cell Stem Cell 2, 230-240).\nIt was next sought to establish a dose-response curve for the Alk5 inhibitor. Using four-factor infected MEFs, concentrations of the Alk5 inhibitor were tested over a 1000-fold range, from 4 nM to 4 μM. […] To verify that manipulation of TGF-β signaling affects reprogramming, it was investigated whether pathway activation would inhibit iPSC formation. Using four-factor infected MEFs, increasing concentrations of TGF-β1 or TGF-β2 were applied during the time of dox induction.\nTo gain further insight into the mode of action of the Alk5 inhibitor, the temporal window during which the inhibitor elicited its strongest effect was examined. In four-factor infected MEFs, the inhibitor was applied in 4-day intervals from days 0-16 of reprogramming. […] To test this, the inhibitor was applied in 3-day time intervals: before dox administration (days −3 to 0) to test for a priming effect, during the first 3 days of reprogramming (days 0 to +3) as a control for the efficiency increase, during both intervals (days−3 to +3) to test for a synergistic effect, and a no-inhibitor control as a baseline measure (FIG. 1G)."}, "primary MEFs": {"tested_on": "primary MEFs", "experiment": "Replacement of reprogramming factors in primary MEFs infected with factor combinations (OSK, OMK, OK)", "experimental": "Replacement of the role of cMyc with the Alk5 inhibitor (1 μM). MEFs were infected with either three (OSK) or four (OSMK) factors. Dox was withdrawn on day 8 and colonies were quantified on day 12 based on morphology and dox independence.\nReplacement of the role of Sox2 with the Alk5 inhibitor (1 μM). MEFs were infected with three (OMK) or two (OK) factors and induced with dox for 16 days, then split on day 18 into media without dox. Image depicts alkaline phosphatase stain of passage 1 cultures.\nExperiments were designed to investigate whether the Alk5 inhibitor could function to replace exogenous expression of any of the reprogramming factors. To this end, primary MEFs were infected with different combinations of the four factors in the presence or absence of inhibitor (FIG. 4) and then scored for iPSC formation.\nFor all of the other replacement conditions, dox was withdrawn on day 16, which would provide sufficient time for reprogramming. […] Nonetheless, colonies were picked from both conditions and tested for their potential to form dox-independent lines."}, "secondary STEMCCA MEFs": {"tested_on": "secondary STEMCCA MEFs", "experiment": "Dose-response of iPSC induction in secondary STEMCCA MEFs", "format": "cell-based, mice", "from_the_text": "3B. Dose-response curve for the Alk5 inhibitor in secondary STEMCCA MEFs.\nSecondary STEMCCA MEFs were used to establish another dose-response curve for the Alk5 inhibitor."}, "[4]": {"tested_on": "Secondary cells carrying the polycistronic STEMCCA construct", "conditions": "dox 2 days; inhibitor 1 μM", "method": "7B. Annexin V and propidium iodide (PI) staining to quantify apoptosis during iPSC induction. […] Annexin V-positive and PI-negative cells represent the fraction of living cells in the process of apoptosis.\nAnnexin V and propidium iodide staining was done using the Annexin V-FITC kit (BD Pharmingen, 556547) according to manufacturer directions. Cells were analyzed by flow cytometry on a FACSCalibur (BD)."}, "[5]": {"tested_on": "Sox2, cMyc, Nanog expression in infected MEFs", "method": "MEFs were infected with various factor combinations, then treated with dox for three days in the presence or absence of […] Alk5 inhibitor (1 μM). qPCR analysis was done using primers that specifically detect endogenous Sox2 or cMyc, as well as total Nanog. Experiments were done with both biological and technical triplicates, and a Student's T-test (paired, two-tailed) was used to assess statistical significance.\nRNA was extracted by using a Qiagen RNeasy kit (74104), then converted to cDNA with the Superscript III First-Strand synthesis system (Invitrogen) using oligo-dT primers. qRT-PCRs were carried out using Brilliant II SYBR Green mix (Stratagene) and run on a Stratagene MXPro400. Reactions were carried out in duplicate with -RT controls, and data were analyzed using the delta-delta Ct method."}, "[6]": {"conditions": "2.5 ng/mL ligand during dox induction"}, "[7]": {"conditions": "5 ng/mL ligand during dox induction"}},
  "note": "Where two headings read alike, the source gives them in different places.",
  "data": [
    {"molecule": "Cc1cccc(-c2n[nH]cc2-c2ccc3ncccc3n2)n1", "note": "[Alk5 inhibitor, 2-(3-(6-Methylpyridin-2-yl)-1H-pyrazol-4-yl)-1,5 napththyridine]", "values": [
      {"measurement": "fold more GFP+ colonies with ES cell morphology", "setting": "Sox2-GFP fibroblasts; four factors, scored 20 days after infection, versus absence of inhibitor", "value": "5-10 fold"},
      {"measurement": "onset of GFP expression in colonies", "setting": "Sox2-GFP fibroblasts; versus colonies formed in the absence of the chemical", "value": "earlier"},
      {"measurement": "effect on reprogramming by cell fusion", "setting": "[1]", "value": "negative result"},
      {"measurement": "proliferation during reprogramming", "setting": "[2]; around day 6", "value": "decrease in proliferation"},
      {"measurement": "cell number early in reprogramming", "setting": "[2]; day 2", "value": "mitigated the decrease in cell number"},
      {"measurement": "increase in reprogramming", "setting": "secondary MEF lines; one secondary MEF line", "value": 2, "unit": "fold"},
      {"measurement": "increase in reprogramming", "setting": "secondary MEF lines; the other secondary MEF line", "value": 30, "unit": "fold"},
      {"measurement": "increase in the efficiency of human fibroblast reprogramming", "setting": "human fibroblast", "value": "not observed"},
      {"measurement": "effect of inhibitor use during reprogramming on the resulting iPSCs (pluripotency markers, teratoma)", "setting": "[3]; 4-day iPSCs", "value": "no adverse effect"},
      {"measurement": "frequency of iPSC colonies", "setting": "[3]; four days of dox, inhibitor 2 μM, counted day 16", "value": 0.0013, "unit": "%"},
      {"measurement": "enhancement in number of iPSC colonies", "setting": "[3]; highest dose tested (range 4 nM to 4 μM), dox and inhibitor 8 days, Oct4 immunostaining day 12", "value": 30, "unit": "fold"},
      {"measurement": "reprogramming efficiency by timing of inhibitor", "setting": "[3]; inhibitor 1 μM applied after dox withdrawal (day 12)", "value": "no effect"},
      {"measurement": "reprogramming efficiency by timing of inhibitor", "setting": "[3]; inhibitor 1 μM applied during 5-8 day interval", "value": "strong enhancement"},
      {"measurement": "reprogramming efficiency by timing of inhibitor", "setting": "[3]; inhibitor 1 μM applied during first four days, dox withdrawn day 12, counts day 16", "value": "largest increase in efficiency"},
      {"measurement": "number of iPSC colonies (alkaline phosphatase stain)", "setting": "[3]; inhibitor 1 μM during dox induction, stained day 12 (8d+dox/4d−dox)", "value": "striking increase"},
      {"measurement": "enhancement in efficiency", "setting": "[3]; inhibitor 1 μM during first 3 days of factor expression (0 to +3d)", "value": "−5", "unit": "fold"},
      {"measurement": "increase in efficiency", "setting": "[3]; inhibitor 1 μM in −3d/+3d group", "value": "comparable to the 0 to +3d group"},
      {"measurement": "reprogramming efficiency, priming test", "setting": "[3]; inhibitor 1 μM prior to factor expression (days 3 to 0), dox withdrawn day 8, counts day 12", "value": "slight reduction in efficiency"},
      {"measurement": "iPSC formation", "setting": "[3]; three days of dox, inhibitor 2 μM, counted day 16", "value": "not obtained"},
      {"measurement": "colony formation in the absence of both cMyc and Sox2", "setting": "primary MEFs; OK + inhibitor 1 μM", "value": "could not be obtained"},
      {"measurement": "dox-independent colonies after passage without dox", "setting": "primary MEFs; OMK+inhibitor 1 μM", "value": "gave rise to dox-independent colonies"},
      {"measurement": "colony formation in cMyc replacement condition", "setting": "primary MEFs; OSK+inhibitor, day 8", "value": "colonies were observed"},
      {"measurement": "picked colonies forming dox-independent iPSC lines", "setting": "primary MEFs; Sox2 replacement condition (OMK), inhibitor-treated culture", "value": "3/22"},
      {"measurement": "colonies morphologically identical to iPSCs", "setting": "primary MEFs; Sox2 replacement condition (OMK), inhibitor-treated culture, dox 16 days", "value": 50, "unit": "colonies"},
      {"measurement": "efficiency of OSK+inhibitor relative to four factors alone (OSK+M)", "setting": "primary MEFs; inhibitor 1 μM, dox withdrawn day 8, colonies day 12", "value": 2.5, "unit": "fold"},
      {"measurement": "increase in efficiency at maximum", "setting": "secondary STEMCCA MEFs; at 0.5 μM", "value": "~60", "unit": "fold"},
      {"measurement": "efficiency at higher doses", "setting": "secondary STEMCCA MEFs; doses above the maximum", "value": "began to decline"},
      {"measurement": "concentration giving maximum efficiency", "setting": "secondary STEMCCA MEFs; dox and inhibitor 8 days, Oct4 immunostaining day 12", "value": 0.5, "unit": "µM"},
      {"measurement": "apoptosis, Annexin V staining, inhibitor-treated versus untreated cells", "setting": "[4]", "value": "negligible difference"},
      {"measurement": "induction of cMyc", "setting": "[5]; cells infected with OSK, dox three days, inhibitor 1 μM", "value": 1.3, "unit": "fold"},
      {"measurement": "change in expression of other genes (Sox2: OMK, OSMK; cMyc: OSMK; Nanog: OMK, OSK, OSMK)", "setting": "[5]; dox three days, inhibitor 1 μM", "value": "No other genes showed a statistically significant change"},
      {"measurement": "induction of Sox2 or cMyc", "setting": "[5]; other cells (OMK or OSMK)", "value": "no significant induction"}
    ]},
    {"molecule": "TGF-β1: TGF-β ligand obtained from Peprotech", "values": [
      {"measurement": "efficiency of iPSC formation", "setting": "[3]", "value": "~0.0013", "unit": "%"},
      {"measurement": "iPSC colonies per well", "setting": "[3]", "value": "one"},
      {"measurement": "iPSC formation", "setting": "[3]; [6]", "value": "undetectable"},
      {"measurement": "iPSC formation", "setting": "[3]; [7]", "value": "undetectable"}
    ]},
    {"molecule": "B1", "values": [
      {"measurement": "efficiency of iPSC formation", "setting": "[3]", "value": "~0.0013", "unit": "%"},
      {"measurement": "iPSC colonies per well", "setting": "[3]", "value": "one"},
      {"measurement": "iPSC formation", "setting": "[3]; [6]", "value": "undetectable"},
      {"measurement": "iPSC formation", "setting": "[3]; [7]", "value": "undetectable"}
    ]}
  ]
}
